In ChEMBL document CHEMBL1201862, “PubChem BioAssay data set” (2004):
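Assay format: 96-well plates, 48-hour exposure. GI50 marks 50% less growth.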 Calls of active or inactive are those of the source. Cut-off read from the data, not from the text of the source: active = GI50 up to about 1.1 µM and inactive = higher.

Legend:
Test in all cases: DTP human tumour cell line panel, 48 h
ACHN = test system: ACHN
COLO 205 = test system: COLO 205
HCC 2998 = test system: HCC 2998
HCT-116 = test system: HCT-116
HL-60 = test system: HL-60
KM12 = test system: KM12
LOX IMVI = test system: LOX IMVI
LXFL 529 = test system: LXFL 529
MOLT-4 = test system: MOLT-4
OVCAR-5 = test system: OVCAR-5
TK-10 = test system: TK-10
UACC-257 = test system: UACC-257
A498 = test system: A498
CAKI-1 = test system: CAKI-1
M19-MEL = test system: M19-MEL
UO-31 = test system: UO-31
Hs-578T = test system: Hs-578T
MCF7 = test system: MCF7
MDA-MB-231 = test system: MDA-MB-231
MDA-MB-435 = test system: MDA-MB-435

Measured: GI50

C/C(=N\N(C)C)C(CN(C)C)C(c1ccccc1)c1c(O)c2ccccc2oc1=O (stereo not given)
inactive: ACHN > 100 µM | COLO 205 > 100 µM | HCC 2998 > 100 µM | HCT-116 > 100 µM | HL-60 > 100 µM | KM12 > 100 µM | LOX IMVI > 100 µM | LXFL 529 > 100 µM | MOLT-4 > 100 µM | OVCAR-5 > 100 µM | TK-10 > 100 µM | UACC-257 > 100 µM

CC(=O)Oc1c2c(c(O)c3ccccc13)C(n1cnc3c(ncn3C3OC(CO)C4OC(C)(C)OC43)c1=N)CCC2 (stereo not given)
inactive: A498 17.3 µM | ACHN 16.5 µM | CAKI-1 25.4 µM | COLO 205 16.9 µM | HCC 2998 15 µM | HL-60 4.49 µM | KM12 14.4 µM | LOX IMVI 4.81 µM | M19-MEL 11.6 µM | MOLT-4 11.1 µM | OVCAR-5 21.2 µM | TK-10 21.5 µM | UACC-257 10.2 µM | UO-31 16.2 µM

O=C(NCCCCCCNC(=O)n1cc(F)c(=O)[nH]c1=O)NCCCOCCOCCOCCOCCOCCOCCOCCOCCOCCOCCOCCOCCOCCOCCOCCOCCOCCOCCOCCOCCOCCCNC(=O)C(O)C(O)C(O)C(O)CO (stereo not given)
inactive: A498 6.95 µM | ACHN 26.7 µM | CAKI-1 22.5 µM | COLO 205 23.8 µM | HCC 2998 5.66 µM | HCT-116 9.57 µM | HL-60 20.8 µM | Hs-578T 61.8 µM | KM12 31.7 µM | LOX IMVI 16.3 µM | M19-MEL 61.7 µM | MCF7 4.72 µM | MDA-MB-231 > 100 µM | MDA-MB-435 55.1 µM | MOLT-4 33.9 µM | OVCAR-5 > 96.4 µM | TK-10 15.6 µM | UACC-257 > 90.2 µM | UO-31 20.9 µM

CC(C)C(=O)OCC1CCCN2CCCCC12 (stereo not given)
inactive: A498 > 100 µM | ACHN > 100 µM | CAKI-1 > 100 µM | COLO 205 51.1 µM | HCC 2998 28.8 µM | HCT-116 57.5 µM | HL-60 39.8 µM | Hs-578T > 100 µM | KM12 > 100 µM | LOX IMVI 82 µM | MCF7 48.1 µM | MDA-MB-231 45.4 µM | MDA-MB-435 > 100 µM | MOLT-4 50.8 µM | OVCAR-5 > 100 µM | TK-10 > 100 µM | UACC-257 > 100 µM | UO-31 62.7 µM

COC(=O)[C@H]1[C@H](OC(=O)[C@@H](OC)c2ccccc2)ON2CC[C@@H](OC(=O)c3ccccc3)[C@H]12
inactive: A498 9.38 µM | ACHN 10.3 µM | CAKI-1 45.2 µM | COLO 205 > 100 µM | HCC 2998 > 100 µM | HCT-116 > 100 µM | HL-60 > 100 µM | Hs-578T 57.9 µM | KM12 > 100 µM | LOX IMVI > 100 µM | MCF7 3.83 µM | MDA-MB-231 74.3 µM | MDA-MB-435 > 100 µM | MOLT-4 > 100 µM | OVCAR-5 > 100 µM | TK-10 > 100 µM | UACC-257 > 100 µM | UO-31 > 100 µM

C=C(C)C(=O)OC1C[C@H](COC(C)=O)C2CC=C(C)C2C2OC(=O)C(=C)[C@H]12 (stereo not given in full)
active: HL-60 0.815 µM
inactive: A498 14.3 µM | ACHN 3.69 µM | CAKI-1 2.81 µM | COLO 205 2.54 µM | HCC 2998 12.2 µM | HCT-116 1.67 µM | Hs-578T 4.06 µM | KM12 11.7 µM | LOX IMVI 1.85 µM | MCF7 4.11 µM | MDA-MB-231 4.3 µM | MDA-MB-435 3.33 µM | MOLT-4 1.72 µM | OVCAR-5 9.77 µM | TK-10 6.76 µM | UACC-257 4.09 µM | UO-31 2.2 µM

COc1ccc(CNc2nc(NCc3ccc(OC)cc3)nc(NC3CCCCC3)n2)cc1
active: CAKI-1 1.07 µM | HCC 2998 1.11 µM | MCF7 0.112 µM | MDA-MB-435 0.472 µM | TK-10 0.975 µM
inactive: A498 48.6 µM | ACHN 5.11 µM | COLO 205 1.94 µM | HCT-116 3.12 µM | HL-60 4.34 µM | Hs-578T 1.77 µM | KM12 1.5 µM | LOX IMVI 3.13 µM | MDA-MB-231 2.48 µM | MOLT-4 > 100 µM | OVCAR-5 4.99 µM | UACC-257 53.8 µM | UO-31 4.32 µM

CCOC(=O)C(NC(=O)c1cccc(Cl)c1)(Nc1ccc(S(=O)(=O)Nc2cc(C)nc(C)n2)cc1)C(F)(F)F (stereo not given)
inactive: A498 > 100 µM | ACHN > 100 µM | CAKI-1 > 100 µM | COLO 205 > 100 µM | HCC 2998 > 100 µM | HCT-116 > 100 µM | HL-60 > 100 µM | Hs-578T > 100 µM | KM12 > 100 µM | LOX IMVI > 100 µM | MCF7 > 100 µM | MDA-MB-231 > 100 µM | MDA-MB-435 > 100 µM | MOLT-4 > 100 µM | OVCAR-5 > 100 µM | TK-10 > 100 µM | UACC-257 > 100 µM | UO-31 > 100 µM
